This is an account of results in ChEMBL document CHEMBL3734727, “Metabolomics-Driven Discovery of a Prenylated Isatin Antibiotic Produced by Streptomyces Species MBT28” (2015).

What is called MIC is the lowest concentration found to suppress growth.

One experiment deals with Staphylococcus aureus. Description: Antibacterial activity against Staphylococcus aureus. Format: functional, organism-based.
Another experiment relates to Escherichia coli. Description: Antibacterial activity against Escherichia coli K-12. Format: functional, organism-based.
The subject of the next experiment is Bacillus subtilis. Description: Antibacterial activity against Bacillus subtilis assessed as growth inhibition by microtiter plate-based MIC test.

Molecules are shown by their SMILES. The source made the active and inactive calls. The calls are words filed in the database; no cut-off is given here.

On to `CC(C)=CCc1cccc2c1NC(=O)C2=O`, for which the result in the experiment on Staphylococcus aureus and in the experiment with Escherichia coli was inactive. Further, the MIC in the experiment with Bacillus subtilis came to 25 µg/mL.
